Assay results published in PMC3399817 (PLoS ONE, 2012).

How the values were obtained:
Test in all cases: KINOMEscan
Type in all cases: binding
PRKCD = biological target: T1, PRKCD (Homo sapiens, UniProt Q05655); conditions: 1 uM
T1 construct: purchased Ambit KINOMEscan (DiscoverX)
In short: (§1)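 Substrate-binding inhibition measured with compound present at 1 μM, single concentration, to pick out affected kinases.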

[1] = biological target: T2, RPS6KA4(Kin.Dom.2-C-terminal) (Homo sapiens, UniProt O75676); conditions: 1 uM
T2 construct: RPS6KA4(Kin.Dom.2-C-terminal); purchased Ambit KINOMEscan (DiscoverX)
In short: as §1

TLK1 = biological target: T3, TLK1 (Homo sapiens, UniProt Q9UKI8); conditions: TLK1, 1 uM
T3 construct: purchased Ambit KINOMEscan (DiscoverX)
In short: as §1

RIPK4 = biological target: T4, RIPK4 (Homo sapiens, UniProt P57078); conditions: RIPK4, 1 uM
T4 construct: purchased Ambit KINOMEscan (DiscoverX)
T4 sequence (P57078 whole entry): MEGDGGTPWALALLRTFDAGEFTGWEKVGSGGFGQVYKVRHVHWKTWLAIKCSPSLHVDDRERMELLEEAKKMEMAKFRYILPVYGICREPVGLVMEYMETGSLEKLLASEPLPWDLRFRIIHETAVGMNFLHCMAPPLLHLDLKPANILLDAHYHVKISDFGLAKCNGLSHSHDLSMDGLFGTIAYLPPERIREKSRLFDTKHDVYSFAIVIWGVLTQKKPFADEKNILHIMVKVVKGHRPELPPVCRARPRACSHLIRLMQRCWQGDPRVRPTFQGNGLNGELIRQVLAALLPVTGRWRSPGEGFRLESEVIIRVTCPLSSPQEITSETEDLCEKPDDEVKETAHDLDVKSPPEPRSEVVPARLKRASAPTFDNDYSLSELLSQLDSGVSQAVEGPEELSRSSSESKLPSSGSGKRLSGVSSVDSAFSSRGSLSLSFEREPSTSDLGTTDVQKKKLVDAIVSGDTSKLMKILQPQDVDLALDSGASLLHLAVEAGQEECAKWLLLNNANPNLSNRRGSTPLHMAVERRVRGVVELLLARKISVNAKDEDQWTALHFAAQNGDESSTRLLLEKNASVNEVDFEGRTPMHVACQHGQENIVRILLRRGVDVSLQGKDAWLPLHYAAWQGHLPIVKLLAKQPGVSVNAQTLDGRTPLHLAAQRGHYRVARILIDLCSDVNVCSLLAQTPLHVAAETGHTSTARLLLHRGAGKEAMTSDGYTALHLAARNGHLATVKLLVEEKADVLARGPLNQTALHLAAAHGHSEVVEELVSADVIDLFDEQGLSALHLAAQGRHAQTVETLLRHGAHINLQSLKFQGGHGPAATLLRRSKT
In short: as §1

TNK1 = biological target: T5, TNK1 (Homo sapiens, UniProt Q13470); conditions: TNK1, 1 uM
T5 construct: purchased Ambit KINOMEscan (DiscoverX)
In short: as §1

[2] = biological target: T6, ABL1(Q252H)-nonphosphorylated (Homo sapiens, UniProt P00519, Q252H); conditions: 1 uM
T6 construct: purchased Ambit KINOMEscan (DiscoverX)
In short: as §1

VEGFR2 = biological target: T7, VEGFR2 (Homo sapiens, UniProt P35968); conditions: VEGFR2, 1 uM
T7 construct: purchased Ambit KINOMEscan (DiscoverX)
In short: as §1

TGFBR2 = biological target: T8, TGFBR2 (Homo sapiens, UniProt P37173); conditions: TGFBR2, 1 uM
T8 construct: purchased Ambit KINOMEscan (DiscoverX)
In short: as §1

ABL2 = biological target: T9, ABL2 (Homo sapiens, UniProt P42684); conditions: ABL2, 1 uM
T9 construct: purchased Ambit KINOMEscan (DiscoverX)
In short: as §1

TIE2 = biological target: T10, TIE2 (Homo sapiens, UniProt Q02763); conditions: TIE2, 1 uM
T10 construct: purchased Ambit KINOMEscan (DiscoverX)
In short: as §1

BRK = biological target: T11, BRK (Homo sapiens, UniProt Q13882); conditions: 1 uM
T11 construct: purchased Ambit KINOMEscan (DiscoverX)
In short: as §1

PFTAIRE2 = biological target: T12, PFTAIRE2 (Homo sapiens, UniProt Q96Q40); conditions: PFTAIRE2, 1 uM
T12 construct: purchased Ambit KINOMEscan (DiscoverX)
In short: as §1

GSK3A = biological target: T13, GSK3A (Homo sapiens, UniProt P49840); conditions: for % binding compared to no inhibitor control: GSK3A, 1 uM
T13 construct: purchased Ambit KINOMEscan (DiscoverX)
T13 sequence (P49840 whole entry): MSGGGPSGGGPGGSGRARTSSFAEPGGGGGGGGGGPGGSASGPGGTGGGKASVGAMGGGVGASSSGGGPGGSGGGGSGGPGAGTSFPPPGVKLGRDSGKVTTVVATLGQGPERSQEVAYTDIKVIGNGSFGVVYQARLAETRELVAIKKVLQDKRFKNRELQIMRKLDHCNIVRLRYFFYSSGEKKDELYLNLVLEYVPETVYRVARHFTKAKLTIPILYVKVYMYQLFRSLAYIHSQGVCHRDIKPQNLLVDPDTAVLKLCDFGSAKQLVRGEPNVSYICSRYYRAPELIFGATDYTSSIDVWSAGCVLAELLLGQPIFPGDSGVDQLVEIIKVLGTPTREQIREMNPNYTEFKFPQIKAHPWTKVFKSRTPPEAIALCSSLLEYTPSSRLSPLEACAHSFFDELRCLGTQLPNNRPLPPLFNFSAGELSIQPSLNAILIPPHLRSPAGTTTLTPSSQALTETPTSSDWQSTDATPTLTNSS
In short: as §1

CAMK2D = biological target: T14, CAMK2D (Homo sapiens, UniProt Q13557); conditions: 1 uM
T14 construct: purchased Ambit KINOMEscan (DiscoverX)
T14 sequence (Q13557 whole entry): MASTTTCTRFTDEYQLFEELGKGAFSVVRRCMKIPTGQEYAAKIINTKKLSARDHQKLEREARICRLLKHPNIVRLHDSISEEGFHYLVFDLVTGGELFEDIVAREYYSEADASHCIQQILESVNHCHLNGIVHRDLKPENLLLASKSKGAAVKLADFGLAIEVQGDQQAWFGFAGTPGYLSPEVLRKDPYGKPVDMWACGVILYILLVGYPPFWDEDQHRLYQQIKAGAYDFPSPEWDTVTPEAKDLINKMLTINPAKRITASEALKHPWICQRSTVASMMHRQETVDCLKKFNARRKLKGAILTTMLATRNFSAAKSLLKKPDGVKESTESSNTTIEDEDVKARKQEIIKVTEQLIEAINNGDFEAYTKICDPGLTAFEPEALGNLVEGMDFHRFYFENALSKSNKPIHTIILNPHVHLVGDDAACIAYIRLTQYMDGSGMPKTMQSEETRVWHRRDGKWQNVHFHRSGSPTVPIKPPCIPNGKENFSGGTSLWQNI
In short: as §1

TTK = biological target: T15, TTK (Homo sapiens, UniProt P33981); conditions: 1 uM
T15 construct: purchased Ambit KINOMEscan (DiscoverX)
In short: as §1

WEE1 = biological target: T16, WEE1 (Homo sapiens, UniProt P30291); conditions: WEE1, 1 uM
T16 construct: purchased Ambit KINOMEscan (DiscoverX)
In short: as §1

TRKB = biological target: T17, TRKB (Homo sapiens, UniProt Q16620); conditions: 1 uM
T17 construct: purchased Ambit KINOMEscan (DiscoverX)
T17 sequence (Q16620 32-822): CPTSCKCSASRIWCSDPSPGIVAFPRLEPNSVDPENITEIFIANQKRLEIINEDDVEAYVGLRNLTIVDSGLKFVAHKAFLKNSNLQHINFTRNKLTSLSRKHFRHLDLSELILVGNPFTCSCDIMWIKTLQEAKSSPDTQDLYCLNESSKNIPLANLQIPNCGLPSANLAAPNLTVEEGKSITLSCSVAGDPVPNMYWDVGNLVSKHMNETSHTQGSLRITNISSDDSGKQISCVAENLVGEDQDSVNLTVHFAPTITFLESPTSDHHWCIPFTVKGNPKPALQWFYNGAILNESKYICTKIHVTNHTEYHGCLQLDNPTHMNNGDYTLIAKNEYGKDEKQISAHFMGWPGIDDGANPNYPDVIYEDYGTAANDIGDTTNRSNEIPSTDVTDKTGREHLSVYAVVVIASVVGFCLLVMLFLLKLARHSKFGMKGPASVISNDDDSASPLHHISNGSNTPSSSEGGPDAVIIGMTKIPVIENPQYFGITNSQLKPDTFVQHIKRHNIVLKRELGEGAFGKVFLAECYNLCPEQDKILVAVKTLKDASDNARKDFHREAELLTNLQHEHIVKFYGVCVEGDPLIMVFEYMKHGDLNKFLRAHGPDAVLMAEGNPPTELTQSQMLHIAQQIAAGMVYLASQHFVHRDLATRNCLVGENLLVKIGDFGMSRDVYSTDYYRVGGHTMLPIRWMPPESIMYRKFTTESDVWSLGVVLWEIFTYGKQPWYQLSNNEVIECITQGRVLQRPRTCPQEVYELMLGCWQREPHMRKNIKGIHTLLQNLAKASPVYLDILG
In short: as §1

FLT3(ITD) = conditions: 1 uM
In short: as §1

EGFR(G719C) = biological target: T18, EGFR(G719C) (Homo sapiens, UniProt P00533, G719C); conditions: 1 uM
T18 construct: purchased Ambit KINOMEscan (DiscoverX)
In short: as §1

PAK2 = biological target: T19, PAK2 (Homo sapiens, UniProt Q13177); conditions: PAK2, 1 uM
T19 construct: purchased Ambit KINOMEscan (DiscoverX)
In short: as §1

SIK = biological target: T20, SIK (Homo sapiens, UniProt P57059); conditions: 1 uM
T20 construct: purchased Ambit KINOMEscan (DiscoverX)
In short: as §1

KIT(V559D,V654A) = biological target: T21, KIT(V559D,V654A) (Homo sapiens, UniProt P10721, V559D/V654A); conditions: 1 uM
T21 construct: purchased Ambit KINOMEscan (DiscoverX)
In short: as §1

PAK4 = biological target: T22, PAK4 (Homo sapiens, UniProt O96013); conditions: PAK4, 1 uM
T22 construct: purchased Ambit KINOMEscan (DiscoverX)
In short: as §1

[3] = biological target: T23, JAK3(JH1domain-catalytic) (Homo sapiens, UniProt P52333); conditions: 1 uM
T23 construct: JAK3(JH1domain-catalytic); purchased Ambit KINOMEscan (DiscoverX)
T23 sequence (P52333 822-1124 limits assumed): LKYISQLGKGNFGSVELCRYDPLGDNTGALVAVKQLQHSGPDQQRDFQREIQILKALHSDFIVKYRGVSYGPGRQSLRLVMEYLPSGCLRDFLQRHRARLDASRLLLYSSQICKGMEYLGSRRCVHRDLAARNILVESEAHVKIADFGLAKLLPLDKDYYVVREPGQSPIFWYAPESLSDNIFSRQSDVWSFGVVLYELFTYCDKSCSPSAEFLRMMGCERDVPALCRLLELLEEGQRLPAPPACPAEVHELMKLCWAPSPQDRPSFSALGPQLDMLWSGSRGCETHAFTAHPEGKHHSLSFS
In short: as §1

SLK = biological target: T24, SLK (Homo sapiens, UniProt Q9H2G2); conditions: 1 uM
T24 construct: purchased Ambit KINOMEscan (DiscoverX)
In short: as §1

FGFR2 = biological target: T25, FGFR2 (Homo sapiens, UniProt P21802); conditions: FGFR2, 1 uM
T25 construct: purchased Ambit KINOMEscan (DiscoverX)
In short: as §1

AXL = biological target: T26, AXL (Homo sapiens, UniProt P30530); conditions: 1 uM
T26 construct: purchased Ambit KINOMEscan (DiscoverX)
In short: as §1

TRKC = biological target: T27, TRKC (Homo sapiens, UniProt Q16288); conditions: 1 uM
T27 construct: purchased Ambit KINOMEscan (DiscoverX)
In short: as §1

LKB1 = biological target: T28, LKB1 (Homo sapiens, UniProt Q15831); conditions: LKB1, 1 uM
T28 construct: purchased Ambit KINOMEscan (DiscoverX)
In short: as §1

PIM2 = biological target: T29, PIM2 (Homo sapiens, UniProt Q9P1W9); conditions: PIM2, 1 uM
T29 construct: purchased Ambit KINOMEscan (DiscoverX)
In short: as §1

TAK1 = biological target: T30, TAK1 (Homo sapiens, UniProt O43318); conditions: TAK1, 1 uM
T30 construct: purchased Ambit KINOMEscan (DiscoverX)
T30 sequence (O43318 whole entry): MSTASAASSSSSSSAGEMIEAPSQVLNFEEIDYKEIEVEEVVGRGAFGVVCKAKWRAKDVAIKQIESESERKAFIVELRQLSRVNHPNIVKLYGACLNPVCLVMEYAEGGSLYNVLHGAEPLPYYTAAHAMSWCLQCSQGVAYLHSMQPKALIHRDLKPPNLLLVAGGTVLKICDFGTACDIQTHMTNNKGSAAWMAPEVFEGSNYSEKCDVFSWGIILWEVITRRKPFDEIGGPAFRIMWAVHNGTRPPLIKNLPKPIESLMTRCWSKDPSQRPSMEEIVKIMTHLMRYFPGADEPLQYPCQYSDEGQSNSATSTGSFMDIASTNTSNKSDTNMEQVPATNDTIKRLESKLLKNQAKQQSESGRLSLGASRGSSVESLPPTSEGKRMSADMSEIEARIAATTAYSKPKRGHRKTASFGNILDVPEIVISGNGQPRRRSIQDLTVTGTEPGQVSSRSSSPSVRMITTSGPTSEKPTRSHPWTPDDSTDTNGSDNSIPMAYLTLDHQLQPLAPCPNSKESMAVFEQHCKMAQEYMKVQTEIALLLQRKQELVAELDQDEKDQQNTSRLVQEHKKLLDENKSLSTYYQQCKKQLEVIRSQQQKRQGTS
In short: as §1

EPHA4 = biological target: T31, EPHA4 (Homo sapiens, UniProt P54764); conditions: EPHA4, 1 uM
T31 construct: purchased Ambit KINOMEscan (DiscoverX)
In short: as §1

PKAC-alpha = biological target: T32, PKAC-alpha (Homo sapiens, UniProt P17612); conditions: 1 uM
T32 construct: purchased Ambit KINOMEscan (DiscoverX)
In short: as §1

IGF1R = biological target: T33, IGF1R (Homo sapiens, UniProt P08069); conditions: 1 uM
T33 construct: purchased Ambit KINOMEscan (DiscoverX)
In short: as §1

TSSK1B = biological target: T34, TSSK1B (Homo sapiens, UniProt Q9BXA7); conditions: 1 uM
T34 construct: purchased Ambit KINOMEscan (DiscoverX)
In short: as §1

GRK1 = biological target: T35, GRK1 (Homo sapiens, UniProt Q15835); conditions: GRK1, 1 uM
T35 construct: purchased Ambit KINOMEscan (DiscoverX)
T35 sequence (Q15835 whole entry): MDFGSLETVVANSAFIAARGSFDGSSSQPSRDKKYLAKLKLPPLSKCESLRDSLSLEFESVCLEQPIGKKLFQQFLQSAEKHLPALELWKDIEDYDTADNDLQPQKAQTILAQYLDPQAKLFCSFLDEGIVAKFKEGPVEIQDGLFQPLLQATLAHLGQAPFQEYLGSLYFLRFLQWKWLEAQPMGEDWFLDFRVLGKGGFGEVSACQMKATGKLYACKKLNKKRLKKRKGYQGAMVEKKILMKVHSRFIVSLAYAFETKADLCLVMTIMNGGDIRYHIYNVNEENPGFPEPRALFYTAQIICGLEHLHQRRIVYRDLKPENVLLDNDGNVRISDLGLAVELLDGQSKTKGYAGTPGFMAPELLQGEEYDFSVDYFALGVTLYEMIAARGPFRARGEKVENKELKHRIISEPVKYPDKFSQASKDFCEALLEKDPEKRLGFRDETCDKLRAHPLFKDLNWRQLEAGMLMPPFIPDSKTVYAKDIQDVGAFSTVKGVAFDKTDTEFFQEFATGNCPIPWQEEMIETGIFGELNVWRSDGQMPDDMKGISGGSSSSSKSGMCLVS
In short: as §1

ZAP70 = biological target: T36, ZAP70 (Homo sapiens, UniProt P43403); conditions: ZAP70, 1 uM
T36 construct: purchased Ambit KINOMEscan (DiscoverX)
In short: as §1

NEK7 = biological target: T37, NEK7 (Homo sapiens, UniProt Q8TDX7); conditions: NEK7, 1 uM
T37 construct: purchased Ambit KINOMEscan (DiscoverX)
In short: as §1

GAK = biological target: T38, GAK (Homo sapiens, UniProt O14976); conditions: 1 uM
T38 construct: purchased Ambit KINOMEscan (DiscoverX)
In short: as §1

T1 sequence (Q05655 whole entry): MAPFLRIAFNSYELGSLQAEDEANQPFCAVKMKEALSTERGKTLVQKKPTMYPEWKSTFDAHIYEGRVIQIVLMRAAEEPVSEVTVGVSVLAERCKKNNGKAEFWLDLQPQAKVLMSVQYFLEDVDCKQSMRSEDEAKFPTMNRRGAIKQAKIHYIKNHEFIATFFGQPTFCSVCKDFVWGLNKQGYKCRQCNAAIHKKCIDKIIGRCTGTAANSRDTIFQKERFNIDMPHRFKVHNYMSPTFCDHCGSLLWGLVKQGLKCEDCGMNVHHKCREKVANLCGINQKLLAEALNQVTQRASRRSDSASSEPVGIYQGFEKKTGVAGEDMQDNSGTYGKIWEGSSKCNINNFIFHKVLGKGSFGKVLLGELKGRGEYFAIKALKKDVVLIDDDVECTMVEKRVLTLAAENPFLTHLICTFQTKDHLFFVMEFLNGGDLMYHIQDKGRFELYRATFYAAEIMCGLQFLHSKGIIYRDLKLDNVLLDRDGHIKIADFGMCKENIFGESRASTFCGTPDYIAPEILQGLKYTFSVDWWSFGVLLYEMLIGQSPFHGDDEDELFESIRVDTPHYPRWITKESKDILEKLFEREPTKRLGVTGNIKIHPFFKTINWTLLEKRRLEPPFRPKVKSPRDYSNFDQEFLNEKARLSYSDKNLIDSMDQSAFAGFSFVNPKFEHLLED

Row | Structure (SMILES) | % binding compared to no inhibitor control (PRKCD) | % binding compared to no inhibitor control [1] | % binding compared to no inhibitor control (TLK1) | % binding compared to no inhibitor control (RIPK4) | % binding compared to no inhibitor control (TNK1) | % binding compared to no inhibitor control [2] | % binding compared to no inhibitor control (VEGFR2) | % binding compared to no inhibitor control (TGFBR2) | % binding compared to no inhibitor control (ABL2) | % binding compared to no inhibitor control (TIE2) | % binding compared to no inhibitor control (BRK) | % binding compared to no inhibitor control (PFTAIRE2) | % binding compared to no inhibitor control (GSK3A) | % binding compared to no inhibitor control (CAMK2D) | % binding compared to no inhibitor control (TTK) | % binding compared to no inhibitor control (WEE1) | % binding compared to no inhibitor control (TRKB) | % binding compared to no inhibitor control (FLT3(ITD)) | % binding compared to no inhibitor control (EGFR(G719C)) | % binding compared to no inhibitor control (PAK2) | further results
1 | COc1ccccc1Nc1nc(-c2ccc(OC)c(OC)c2)cc2nccn12 [BAY derivative 6] | 100% | 86% | 57% | 93% | 56% | 58% | 100% | 100% | 93% | 100% | 59% | 100% | 100% | 100% | 74% | 100% | 74% | 82% | 100% | 76% | % binding compared to no inhibitor control (SIK): 100%; % binding compared to no inhibitor control (KIT(V559D,V654A)): 100%; % binding compared to no inhibitor control (PAK4): 90%; % binding compared to no inhibitor control [3]: 100%; % binding compared to no inhibitor control (SLK): 28%; % binding compared to no inhibitor control (FGFR2): 83%; % binding compared to no inhibitor control (AXL): 89%; % binding compared to no inhibitor control (TRKC): 98%; % binding compared to no inhibitor control (LKB1): 72%; % binding compared to no inhibitor control (PIM2): 91%; % binding compared to no inhibitor control (TAK1): 96%; % binding compared to no inhibitor control (EPHA4): 92%; % binding compared to no inhibitor control (PKAC-alpha): 72%; % binding compared to no inhibitor control (IGF1R): 79%; % binding compared to no inhibitor control (TSSK1B): 100%; % binding compared to no inhibitor control (GRK1): 100%; % binding compared to no inhibitor control (ZAP70): 100%; % binding compared to no inhibitor control (NEK7): 100%; % binding compared to no inhibitor control (GAK): 43%
2 | COc1ccc(-c2cc3nccn3c(Nc3ncccc3C(N)=O)n2)cc1OC.Cl.Cl [BAY61-3606, 2-[7-(3,4-dimethoxyphenyl)-imidazo [1,2-c]pyrimidin-5-ylamino] nicotinamide dihydrochloride, reference compound] | 94% | 60% | 89% | 19% | 82% | 85% | 94% | 31% | 95% | 100% | 87% | 85% | 17% | 72% | 51% | 89% | 83% | 2.1% | 68% | 80% | % inhibition ATP binding (GSK3A; GSK3α, KINOMEscan, 1 μM): 83%; % binding compared to no inhibitor control (SIK): 80%; % binding compared to no inhibitor control (KIT(V559D,V654A)): 71%; % binding compared to no inhibitor control (PAK4): 85%; % binding compared to no inhibitor control [3]: 100%; % binding compared to no inhibitor control (SLK): 58%; % binding compared to no inhibitor control (FGFR2): 100%; % binding compared to no inhibitor control (AXL): 92%; % binding compared to no inhibitor control (TRKC): 92%; % binding compared to no inhibitor control (LKB1): 95%; % binding compared to no inhibitor control (PIM2): 87%; % binding compared to no inhibitor control (TAK1): 63%; % binding compared to no inhibitor control (EPHA4): 91%; % binding compared to no inhibitor control (PKAC-alpha): 90%; % binding compared to no inhibitor control (IGF1R): 97%; % binding compared to no inhibitor control (TSSK1B): 96%; % binding compared to no inhibitor control (GRK1): 65%; % binding compared to no inhibitor control (ZAP70): 9%; % binding compared to no inhibitor control (NEK7): 60%; % binding compared to no inhibitor control (GAK): 30%
